ChEMBL document CHEMBL1201862, “PubChem BioAssay data set” (2004)
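Tested at 5 concentrations; 48 h exposure; 96-well plates; endpoints linearly interpolated, else capped at highest concentration. GI50 is the concentration that inhibits growth by half.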 Active and inactive are the calls of the source. Cut-off read from the data, not from the text of the source: active = GI50 up to about 1.1 µM and inactive = higher.

Tests used:
Test in all cases: NCI-60 cell line screen, 48 h
OVCAR-4 = tested on: OVCAR-4
HOP-62 = tested on: HOP-62
DLD-1 = tested on: DLD-1
SF-268 = tested on: SF-268
HCT-15 = tested on: HCT-15
HOP-18 = tested on: HOP-18
Malme-3M = tested on: Malme-3M
SK-MEL-2 = tested on: SK-MEL-2
UACC-257 = tested on: UACC-257
UACC-62 = tested on: UACC-62
SNB-19 = tested on: SNB-19
K562 = tested on: K562
SK-MEL-5 = tested on: SK-MEL-5
HCT-116 = tested on: HCT-116
SN12C = tested on: SN12C
KM12 = tested on: KM12
SNB-78 = tested on: SNB-78
786-0 = tested on: 786-0
DMS-273 = tested on: DMS-273
TK-10 = tested on: TK-10
LXFL 529 = tested on: LXFL 529
LOX IMVI = tested on: LOX IMVI
SF-539 = tested on: SF-539
RPMI-8226 = tested on: RPMI-8226
SR = tested on: SR
ACHN = tested on: ACHN
MOLT-4 = tested on: MOLT-4
NCI-H522 = tested on: NCI-H522
OVCAR-3 = tested on: OVCAR-3
HL-60 = tested on: HL-60
A549 = tested on: A549
COLO 205 = tested on: COLO 205
U-251 = tested on: U-251
RXF 393 = tested on: RXF 393
SNB-75 = tested on: SNB-75
EKVX = tested on: EKVX
IGROV-1 = tested on: IGROV-1
SK-MEL-28 = tested on: SK-MEL-28
KM-20L2 = tested on: KM-20L2
NCI-H460 = tested on: NCI-H460
OVCAR-5 = tested on: OVCAR-5
SF-295 = tested on: SF-295
UO-31 = tested on: UO-31
DMS-114 = tested on: DMS-114
M14 = tested on: M14
A498 = tested on: A498
HT-29 = tested on: HT-29
NCI-H23 = tested on: NCI-H23
CCRF-CEM = tested on: CCRF-CEM
SW-620 = tested on: SW-620
OVCAR-8 = tested on: OVCAR-8
M19-MEL = tested on: M19-MEL
NCI-H226 = tested on: NCI-H226
CAKI-1 = tested on: CAKI-1
HCC 2998 = tested on: HCC 2998
SK-OV-3 = tested on: SK-OV-3
HOP-92 = tested on: HOP-92

Measured: GI50

O=C1/C(=C/c2ccccc2)CN(C(=O)C(F)(F)F)C/C1=C\c1ccccc1
active: K562 467 nM | HCT-116 333 nM | RPMI-8226 165 nM | HL-60 733 nM | SW-620 480 nM
2030 nM: HCT-15
inactive: OVCAR-4 2440 nM | HOP-62 11500 nM | DLD-1 2070 nM | SF-268 3940 nM | HOP-18 6820 nM | Malme-3M 3720 nM | SK-MEL-2 7980 nM | UACC-257 1660 nM | UACC-62 1840 nM | SNB-19 4280 nM | SK-MEL-5 1710 nM | SN12C 1700 nM | KM12 1540 nM | SNB-78 2200 nM | 786-0 1680 nM | DMS-273 1440 nM | TK-10 3610 nM | LXFL 529 1660 nM | LOX IMVI 1220 nM | SF-539 1860 nM | SR 2020 nM | ACHN 2240 nM | MOLT-4 3060 nM | NCI-H522 2740 nM | OVCAR-3 3250 nM | A549 3170 nM | COLO 205 2420 nM | U-251 1570 nM | RXF 393 1840 nM | SNB-75 6580 nM | EKVX > 10000 nM | IGROV-1 2290 nM | SK-MEL-28 1830 nM | KM-20L2 2110 nM | NCI-H460 1560 nM | OVCAR-5 3460 nM | SF-295 1590 nM | UO-31 2180 nM | DMS-114 1640 nM | M14 1610 nM | A498 1980 nM | HT-29 1300 nM | NCI-H23 1830 nM | CCRF-CEM 1540 nM | OVCAR-8 1640 nM | M19-MEL 1610 nM

O=C(Nc1ccc([N+](=O)[O-])cc1Cl)c1cccc([N+](=O)[O-])c1O
inactive: NCI-H226 2840 nM | OVCAR-4 2820 nM | SF-268 2700 nM | SK-MEL-2 1600 nM | UACC-257 2020 nM | SNB-19 3090 nM | K562 1120 nM | SN12C 1480 nM | KM12 3110 nM | CAKI-1 1830 nM | SNB-78 2300 nM | LOX IMVI 1710 nM | SF-539 2050 nM | SR 2900 nM | ACHN 2520 nM | MOLT-4 1880 nM | HL-60 1870 nM | A549 2300 nM | U-251 2750 nM | EKVX 2160 nM | SK-MEL-28 1600 nM | KM-20L2 2740 nM | NCI-H460 2210 nM | OVCAR-5 3020 nM | SF-295 1920 nM | UO-31 1450 nM | HT-29 3040 nM | NCI-H23 1120 nM | CCRF-CEM 1130 nM | SW-620 2590 nM | OVCAR-8 2610 nM | HCC 2998 1690 nM
active: HOP-18 109 nM | Malme-3M 552 nM | LXFL 529 1090 nM | RPMI-8226 920 nM | NCI-H522 755 nM | A498 668 nM

CCC1(CC)C(=O)NC(=O)NC1=S
inactive: NCI-H226 > 100000 nM | OVCAR-4 > 100000 nM | HOP-62 > 100000 nM | DLD-1 > 100000 nM | SF-268 > 100000 nM | HOP-18 > 100000 nM | Malme-3M > 100000 nM | SK-MEL-2 > 100000 nM | UACC-257 > 100000 nM | UACC-62 > 100000 nM | SNB-19 > 100000 nM | K562 > 100000 nM | HCT-116 > 100000 nM | SN12C > 100000 nM | SNB-78 > 100000 nM | 786-0 > 100000 nM | DMS-273 > 100000 nM | TK-10 > 100000 nM | LXFL 529 > 100000 nM | LOX IMVI > 100000 nM | SF-539 > 100000 nM | RPMI-8226 > 100000 nM | SK-OV-3 > 100000 nM | ACHN > 100000 nM | MOLT-4 > 100000 nM | NCI-H522 > 100000 nM | OVCAR-3 > 100000 nM | HL-60 > 100000 nM | A549 > 100000 nM | COLO 205 > 100000 nM | U-251 > 100000 nM | RXF 393 > 100000 nM | SNB-75 > 100000 nM | EKVX > 100000 nM | IGROV-1 > 100000 nM | HOP-92 > 100000 nM | SK-MEL-28 > 100000 nM | KM-20L2 > 100000 nM | NCI-H460 > 100000 nM | OVCAR-5 > 100000 nM | SF-295 > 100000 nM | UO-31 > 100000 nM | DMS-114 > 100000 nM | M14 > 100000 nM | A498 > 100000 nM | HT-29 > 100000 nM | NCI-H23 > 100000 nM | CCRF-CEM > 100000 nM | SW-620 > 100000 nM | OVCAR-8 > 100000 nM | M19-MEL > 100000 nM
> 100000 nM: HCT-15
